In patent US20090275583A1, “ANTIVIRAL COMPOUNDS AND USE THEREOF” (Myriad Genetics, Incorporated, priority 2006, published 2009) one finds EC50 and IC50 data, which are given here for eight molecules.

A word on the EC50: it is the concentration at which the effect is half-maximal. A word on the IC50: it is the midpoint of a concentration-inhibition curve.

Experiment [1] concerns HIV-1 laboratory strain, NL4-3. Put plainly: MT-4 cytoprotection assay. It is filed as cell-based. As to conditions: Human immunodeficiency virus 1, NL43, MT4, 96 h; MT-4 cells, four days incubation, WST-1 readout; read-out: MT4 EC50. Put shortly: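 MT-4 cells mock- or batch-infected with NL4-3 (MOI 0.0005) for 2 h, washed, then cultured 4 days with increasing compound concentrations. Viability read by WST-1 tetrazolium reduction: cytoprotection in infected cells, toxicity in mock-infected cells.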

In a further experiment the test system is HIV-1NL4-3. Put plainly: P4-MAGI assay. As to conditions: Human immunodeficiency virus 1, 24 h, P4 cells, 24 hour incubation, β-galactosidase expression; read-out: P4-MAGI IC50. It is filed as cell-based. Put shortly:
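HeLa-derived CD4+ P4 cells carrying an LTR-driven lacZ were infected with HIV-1NL4-3 at MOI 1 with DEAE-Dextran, then compound added in increasing concentrations right after virus; infection reported as Tat-induced β-galactosidase. TC50 measured by WST-1 in mock-infected cells.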

Take `C=C(CSCCC(=O)O)[C@@H]1CC[C@]2(C(=O)NCCc3cccc(C(=O)NCc4ccc(C(=O)O)cc4)c3)CC[C@]3(C)C(CCC4[C@@]5(C)CC[C@H](O)C(C)(C)C5CC[C@]43C)C12` (stereo partly shown) [Example 268]: the concentration giving a half-maximal response (EC50) in experiment [1] worked out at 0.411 µM. Further, the IC50 in the experiment on HIV-1NL4-3 was determined as 0.104 µM.

With `C/C(=C/C#N)[C@@H]1CC[C@]2(C(=O)NCCc3cccc(C(=O)NCc4ccc(C(=O)O)cn4)c3)CC[C@]3(C)C(CCC4[C@@]5(C)CC[C@H](O)C(C)(C)C5CC[C@]43C)C12` (stereo partly shown) [Example 269], in experiment [1], the EC50 is 0.039 µM. Further, the IC50 in the experiment with HIV-1NL4-3 was determined as 0.0114 µM.

In the case of `CC(O)(CN1CCCC1)[C@@H]1CC[C@]2(C(=O)NCCc3cccc(C(=O)NCc4ccc(C(=O)O)cn4)c3)CC[C@]3(C)C(CCC4[C@@]5(C)CC[C@H](O)C(C)(C)C5CC[C@]43C)C12` (stereo partly shown) [Example 270], the EC50 in experiment [1] was found to be 0.441 µM. In addition, the IC50 with HIV-1NL4-3 was determined as 0.1 µM.

For the molecule `CC1(C)C2CC[C@]3(C)C(CCC4C5[C@H]([C@@](C)(O)CO)CC[C@]5(C(=O)NCCc5cccc(C(=O)NCc6ccc(C(=O)O)cn6)c5)CC[C@]43C)[C@@]2(C)CC[C@@H]1O` (stereo partly shown) [Example 271], the EC50 in experiment [1] came to 1.81 µM. Also, the concentration for half-maximal inhibition (IC50) with HIV-1NL4-3 amounted to 0.119 µM.

In the case of `C=C(C)[C@@H]1CC[C@]2(C(=O)NCCc3cccc(C(=O)NCc4ccc(C(=O)NCCc5cnc[nH]5)cn4)c3)CC[C@]3(C)C(CCC4[C@@]5(C)CC[C@H](O)C(C)(C)C5CC[C@]43C)C12` (stereo partly shown) [Example 272], the EC50 in experiment [1] was determined as 0.0124 µM. Also, the IC50 with HIV-1NL4-3 was 0.0031 µM.

As for `C=C(C)[C@@H]1CC[C@]2(C(=O)NCCc3ccc(C)c(C(=O)NCc4ccc(C(=O)O)cn4)c3)CC[C@]3(C)C(CCC4[C@@]5(C)CC[C@H](O)C(C)(C)C5CC[C@]43C)C12` (stereo partly shown) [Example 273], in experiment [1], the EC50 was found to be 1.86 µM. The IC50 with HIV-1NL4-3 was 0.127 µM.

For the molecule `C=C(C)[C@@H]1CC[C@]2(C(=O)NCCc3ccc(C)c(C(=O)NCc4ccc(C(=O)O)cc4)c3)CC[C@]3(C)C(CCC4[C@@]5(C)CC[C@H](O)C(C)(C)C5CC[C@]43C)C12` (stereo partly shown) [Example 274], the EC50 in experiment [1] is 4.32 µM. Also, the IC50 in the experiment on HIV-1NL4-3 amounted to 0.0845 µM.

Regarding `C=C(C)[C@@H]1CC[C@]2(C(=O)NCCc3cccc(C(=O)N[C@@H](C)c4cccc[n+]4[O-])c3)CC[C@]3(C)C(CCC4[C@@]5(C)CC[C@H](O)C(C)(C)C5CC[C@]43C)C12` (stereo partly shown) [Example 275], in experiment [1], the EC50 was determined as 1 µM. The IC50 in the experiment with HIV-1NL4-3 is 0.18 µM.
